Assay [1] concerns oxotremorine-induced salivation. The experiment in a line: In vivo rat salivation assay. As to the method: Female Sprague-Dawley rats weighing 200 to 300 g were anesthetized with urethane (1.5 g/kg, s.c., Sigma, St. Louis, Mo.), with a supplement of 0.25 g/kg, s.c. urethane as needed. Urethane was administered at a concentration of 0.25 g/mL.
Rats were placed on a heated blanket on their dorsal side in an inclined position (20° angle) position (head down). A swab was placed in the rat's mouth. The test compound or vehicle was administered intravenously via the tail vein. After 5 min., oxotremorine (1.0 mg/kg) was administered subcutaneously. The swab was discarded and
Replaced by a pre-weighed swab. Saliva was then collected for 10 min. and then the swab was removed and re-weighed to determine the output of saliva. Dose-response curves were fitted with a four parameter logistic equation to obtain estimates of ID50 (dose required to produce 50% of the maximal response).
By comparing the ID50 values determined in the rat bladder assay and rat salivation assay, the in vivo bladder/salivation selectivity ratio was calculated for the compounds tested.

Assay [2] has as its target T1, hM3 muscarinic receptor subtype (Homo sapiens, UniProt P20309).
T1 construct: expressed in transfected cells; membranes prepared
As to the kind of experiment: Radioligand binding assay, hM3 relative to hM2. To be noted: ratio of Ki values from radioligand displacement. The protocol: (§1) CHO (Chinese hamster ovary) cell lines stably expressing cloned human hM1, hM2, hM3 and hM4 muscarinic receptor subtypes, respectively, were grown to near confluency in medium consisting of HAM's F-12 supplemented with 10% FBS (Fetal Bovine Serum) and 250 μg/mL Geneticin. The cells were grown in a 5% CO2, 37° C. incubator and lifted with dPBS+2 mM EDTA. Cells were collected by 5 minute centrifugation at 650×g, and cell pellets were either stored frozen at −80° C. or membranes were prepared immediately. For membrane preparation, cell pellets were resuspended in lysis buffer and homogenized with a Polytron PT-2100 tissue disrupter (Kinematica AG; 20 seconds×2 bursts). Crude membranes were centrifuged at 40,000×g for 15 minutes at 4° C. […] Protein concentration of the membrane suspension was determined by the method of Lowry, O. et al., (1951) […]: 193, 265. […]
(§2) Radioligand binding assays were performed in 96-well microtiter plates in a total assay volume of 100 μL. […] Filter plates were rinsed three times with wash buffer (10 mM HEPES) to remove unbound radioactivity. […] The plates were then counted in a PerkinElmer Topcount liquid scintillation counter (PerkinElmer Inc., Wellesley, Mass.). Binding data were analyzed by nonlinear regression analysis with the GraphPad Prism Software package (GraphPad Software, Inc., San Diego, Calif.) using the one-site competition model. […]

The target in assay [3] is T2, hM2 muscarinic receptor subtype (Homo sapiens, UniProt P08172).
T2 construct: expressed in transfected cells; membranes prepared
T2 sequence (P08172 1-466): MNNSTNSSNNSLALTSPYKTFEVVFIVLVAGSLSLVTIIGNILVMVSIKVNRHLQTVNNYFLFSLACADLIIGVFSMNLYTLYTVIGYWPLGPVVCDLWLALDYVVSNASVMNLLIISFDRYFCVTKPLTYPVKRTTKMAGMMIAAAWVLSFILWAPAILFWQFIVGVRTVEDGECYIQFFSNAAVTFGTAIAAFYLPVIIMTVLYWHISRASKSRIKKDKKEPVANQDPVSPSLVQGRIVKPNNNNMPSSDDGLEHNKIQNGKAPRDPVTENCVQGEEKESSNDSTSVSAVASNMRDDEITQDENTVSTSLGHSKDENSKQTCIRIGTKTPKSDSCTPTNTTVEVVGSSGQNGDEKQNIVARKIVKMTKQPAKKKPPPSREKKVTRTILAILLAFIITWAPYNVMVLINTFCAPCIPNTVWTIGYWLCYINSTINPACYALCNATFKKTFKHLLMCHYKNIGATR
As to the kind of experiment: Radioligand binding assay ([3H]NMS displacement), hM2. To be noted: [3H]NMS at 1 nM; membranes of CHO cells expressing hM2. As to the method: as §1, §2

T1 sequence (P20309 whole entry): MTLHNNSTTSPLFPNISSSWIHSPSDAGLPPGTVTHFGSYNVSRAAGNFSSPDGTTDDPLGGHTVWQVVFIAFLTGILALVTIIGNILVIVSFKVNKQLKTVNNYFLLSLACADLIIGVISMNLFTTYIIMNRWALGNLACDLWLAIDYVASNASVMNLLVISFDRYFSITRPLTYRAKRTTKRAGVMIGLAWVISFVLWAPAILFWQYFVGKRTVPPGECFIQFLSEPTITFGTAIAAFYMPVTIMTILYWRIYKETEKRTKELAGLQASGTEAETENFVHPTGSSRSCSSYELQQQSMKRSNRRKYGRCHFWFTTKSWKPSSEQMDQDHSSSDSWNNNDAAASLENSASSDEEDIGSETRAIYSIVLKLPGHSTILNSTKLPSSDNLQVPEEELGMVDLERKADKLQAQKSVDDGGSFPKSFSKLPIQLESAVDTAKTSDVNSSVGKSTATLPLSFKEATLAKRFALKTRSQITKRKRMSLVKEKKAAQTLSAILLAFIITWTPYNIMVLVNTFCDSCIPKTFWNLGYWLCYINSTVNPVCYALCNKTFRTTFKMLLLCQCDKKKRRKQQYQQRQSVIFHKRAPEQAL

In the case of `COc1ccncc1CN1CCC(N(CCCCCCCN2CC[C@@H](C(C(N)=O)(c3ccccc3)c3ccccc3)C2)C(C)C)CC1` [Example 1], the “ID50 (salivation)” value in assay [1] (intravenous, anesthetized female Sprague-Dawley rats, oxotremorine 1.0 mg/kg s.c.) was “greater than or equal to 0.9 mg/kg”. Further, the “ID50 bladder/salivation selectivity ratio” value in assay [1] (rat bladder assay vs rat salivation assay) was “greater than 20”. Further, the hM3/hM2 ratio entry in assay [2] is “greater than 40”. In assay [3], this molecule showed an inhibition constant (Ki) of less than 1 nM.

The record behind these values is patent US7285564B2, “Substituted 4-amino-1-(pyridylmethyl)piperidine and related compounds” (Theravance, Inc., priority 2002, dated 2007).
